Source: patent publication US20060052447A1, “Novel substituted arylhexadienoic acids and esters thereof which can be used for the treatment and prevention of diabetes, dyslipidaemia and atherosclerosis, pharmaceutical compositios comprising them and processes for the preparation of them” (Merck Patent GmbH, priority 2002, published 2006)

Columns and labels:
Assay type in all cases: cell-based
[1] = molecular target: T1, chimeric protein PPARα-Gal4 (Homo sapiens, UniProt Q07869); experiment: PPAR activation, Gal4 chimera luciferase reporter in co-transfected CV-1 cells; settings: 50 μM; CV-1 cells (monkey kidney cells); 18 hours contact; relative to control cells without product
T1 construct: expressed in transfected cells; host or cells: CV-1 cells (monkey kidney cells)
T1 sequence (Q07869 239-466 limits assumed): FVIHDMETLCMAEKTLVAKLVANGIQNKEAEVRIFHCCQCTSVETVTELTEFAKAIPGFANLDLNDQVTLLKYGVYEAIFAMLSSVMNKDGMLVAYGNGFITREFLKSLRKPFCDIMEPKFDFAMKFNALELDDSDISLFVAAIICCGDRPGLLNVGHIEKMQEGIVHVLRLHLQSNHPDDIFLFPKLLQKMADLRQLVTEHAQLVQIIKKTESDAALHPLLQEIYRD
Description: (§1) The measurement of the PPAR activation was performed according to a technique described by Lehmann et al. (1995, J. Biol. Chem. 270: 12953-12956).
(§2) CV-1 cells (monkey kidney cells) are co-transfected with an expression vector for the chimeric proteins PPARα-Gal4 or PPARγ-Gal4 and with a “reporter” plasmid that allows the expression of the luciferase gene placed under the control of a promoter containing Gal4 response elements.
(§3) The cells are inoculated in 96-well microplates and co-transfected using a commercial reagent with the reporter plasmid (pG5-tk-pGL3) and the expression vector for the chimeric protein (PPARα-Gal4 or PPARγ-Gal4). After incubating for 4 hours, whole culture medium (comprising 10% foetal calf serum) is added to the wells. After 24 hours, the medium is removed and replaced by whole medium comprising the test products (50 μM final).
(§4) The products are left in contact with the cells for 18 hours. The cells are then lysed and the luciferase activity is measured using a luminometer. A PPAR activation factor can then be calculated by means of the activation of the expression of the reporter gene induced by the product (relative to the control cells that have not received any product).

[2] = molecular target: T2, chimeric protein PPARγ-Gal4 (Homo sapiens, UniProt P37231); experiment: as above; settings: 50 μM; CV-1 cells (monkey kidney cells); 18 hours contact; relative to control cells without product
T2 construct: expressed in transfected cells; host or cells: CV-1 cells (monkey kidney cells)
T2 sequence (P37231 238-503 limits assumed): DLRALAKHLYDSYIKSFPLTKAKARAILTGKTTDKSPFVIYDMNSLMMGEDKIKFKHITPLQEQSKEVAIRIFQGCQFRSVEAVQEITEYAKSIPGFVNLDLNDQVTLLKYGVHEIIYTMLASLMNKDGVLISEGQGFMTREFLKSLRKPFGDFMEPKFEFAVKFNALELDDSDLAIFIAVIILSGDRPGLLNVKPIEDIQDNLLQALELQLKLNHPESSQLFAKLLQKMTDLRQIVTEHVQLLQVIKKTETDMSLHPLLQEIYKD
Description: as §1, §2, §3, §4

[3] = molecular target: T3, vector expressing Gal4 alone (Saccharomyces cerevisiae, UniProt P04386); experiment: Luciferase reporter control without PPAR ligand binding region in CV-1 cells; settings: absence of the binding region for the PPAR α or γ ligand (Gal4 alone)
T3 construct: expressed in transfected cells; host or cells: CV-1 cells (monkey kidney cells)
Text: CV-1 cells (monkey kidney cells) are co-transfected with an expression vector for the chimeric proteins PPARα-Gal4 or PPARγ-Gal4 and with a “reporter” plasmid that allows the expression of the luciferase gene placed under the control of a promoter containing Gal4 response elements. The cells are inoculated in 96-well microplates and co-transfected using a commercial reagent with the reporter plasmid (pG5-tk-pGL3) and the expression vector for the chimeric protein (PPARα-Gal4 or PPARγ-Gal4). After incubating for 4 hours, whole culture medium (comprising 10% foetal calf serum) is added to the wells. After 24 hours, the medium is removed and replaced by whole medium comprising the test products (50 μM final). The products are left in contact with the cells for 18 hours. The cells are then lysed and the luciferase activity is measured using a luminometer. A PPAR activation factor can then be calculated by means of the activation of the expression of the reporter gene induced by the product (relative to the control cells that have not received any product). […] In the absence of the binding region for the PPAR α or γ ligand (vector expressing Gal4 alone), the luciferase activity measured in the presence of this product is zero.

T3 sequence (P04386 1-147 limits assumed): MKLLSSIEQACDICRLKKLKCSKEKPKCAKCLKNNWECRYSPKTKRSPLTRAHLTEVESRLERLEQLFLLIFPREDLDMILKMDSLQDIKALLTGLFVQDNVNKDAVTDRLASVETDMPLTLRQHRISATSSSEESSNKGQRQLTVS

CCCC(C=CC(=O)c1cc(OC)ccc1OC)=CC(=O)OCC [Example 12, ethyl 6-(2,5-dimethoxyphenyl)-6-oxo-3-propylhexa-2,4-dienoate]
PPAR activation factor (activation of expression of the luciferase reporter gene) [1]: seven | PPAR activation factor (activation of expression of the luciferase reporter gene) [2]: five | luciferase activity measured in the presence of the product [3]: zero
